Reference: article PMC10945555, “Improving Activity of New Arylurea Agents against Multidrug-Resistant and Biofilm-Producing Staphylococcus epidermidis” (ACS Medicinal Chemistry Letters, 2024)
Converted amounts (≈) assume the structure as drawn. Read-outs that look alike come from different tables or passages of the source.

Tested on: clinical Staphylococcus epidermidis strains
Experiment: Minimal bactericidal concentration (MBC), MBC/MIC
Type: cell-based
Conditions: for MBC: Staphylococcus epidermidis
Method: 2.5 Evaluation of bacteriostatic/bactericidal properties […]
determining MBC (Minimal Bactericidal Concentration) values. The study was conducted in accordance with the guidelines of the Clinical and Laboratory Standards Institute (CLSI).13 The MBC value was assumed to be the concentration of the compound inhibiting the growth of strains in 99.9%. Then, the value of the MBC/MIC ratio was calculated to assess its bactericidal or bacteriostatic activity. […]

O=C(Nc1cccc(Cl)c1)NC1CCN(CCC(Oc2ccc(C(F)(F)F)cc2)c2cccs2)CC1 (stereo not drawn) [Compound 25]
MBC (81 clinical strains (Table S5), read-out: Average of MBC): 29.2 µg/mL (≈ 54.2 µM)
MBC (clinical strain 1 (Table S5), read-out: MBC): 25 µg/mL (≈ 46.5 µM)
MBC (clinical strain 2 (Table S5), read-out: MBC): 25 µg/mL (≈ 46.5 µM)
MBC (clinical strain 3 (Table S5), read-out: MBC): 12.5 µg/mL (≈ 23.2 µM)
MBC (clinical strain 4 (Table S5), read-out: MBC): 25 µg/mL (≈ 46.5 µM)
MBC (clinical strain 5 (Table S5), read-out: MBC): 50 µg/mL (≈ 92.9 µM)
MBC (clinical strain 6 (Table S5), read-out: MBC): 25 µg/mL (≈ 46.5 µM)
MBC (clinical strain 7 (Table S5), read-out: MBC): 25 µg/mL (≈ 46.5 µM)
MBC (clinical strain 8 (Table S5), read-out: MBC): 12.5 µg/mL (≈ 23.2 µM)
MBC (clinical strain 9 (Table S5), read-out: MBC): 50 µg/mL (≈ 92.9 µM)
MBC (clinical strain 10 (Table S5), read-out: MBC): 50 µg/mL (≈ 92.9 µM)
MBC (clinical strain 11 (Table S5), read-out: MBC): 25 µg/mL (≈ 46.5 µM)
MBC (clinical strain 12 (Table S5), read-out: MBC): 25 µg/mL (≈ 46.5 µM)
MBC (clinical strain 13 (Table S5), read-out: MBC): 25 µg/mL (≈ 46.5 µM)
MBC (clinical strain 14 (Table S5), read-out: MBC): 25 µg/mL (≈ 46.5 µM)
MBC (clinical strain 15 (Table S5), read-out: MBC): 50 µg/mL (≈ 92.9 µM)
MBC (clinical strain 16 (Table S5), read-out: MBC): 25 µg/mL (≈ 46.5 µM)
MBC (clinical strain 17 (Table S5), read-out: MBC): 1.6 µg/mL (≈ 2.97 µM)
MBC (clinical strain 18 (Table S5), read-out: MBC): 50 µg/mL (≈ 92.9 µM)
MBC (clinical strain 19 (Table S5), read-out: MBC): 12.5 µg/mL (≈ 23.2 µM)
MBC (clinical strain 20 (Table S5), read-out: MBC): 25 µg/mL (≈ 46.5 µM)
MBC (clinical strain 21 (Table S5), read-out: MBC): 25 µg/mL (≈ 46.5 µM)
MBC (clinical strain 22 (Table S5), read-out: MBC): 12.5 µg/mL (≈ 23.2 µM)
MBC (clinical strain 23 (Table S5), read-out: MBC): 25 µg/mL (≈ 46.5 µM)
MBC (clinical strain 24 (Table S5), read-out: MBC): 25 µg/mL (≈ 46.5 µM)
MBC (clinical strain 25 (Table S5), read-out: MBC): 12.5 µg/mL (≈ 23.2 µM)
MBC (clinical strain 26 (Table S5), read-out: MBC): 50 µg/mL (≈ 92.9 µM)
MBC (clinical strain 27 (Table S5), read-out: MBC): 50 µg/mL (≈ 92.9 µM)
MBC (clinical strain 28 (Table S5), read-out: MBC): 12.5 µg/mL (≈ 23.2 µM)
MBC (clinical strain 29 (Table S5), read-out: MBC): 6.25 µg/mL (≈ 11.6 µM)
MBC (clinical strain 30 (Table S5), read-out: MBC): 12.5 µg/mL (≈ 23.2 µM)
MBC (clinical strain 31 (Table S5), read-out: MBC): 25 µg/mL (≈ 46.5 µM)
MBC (clinical strain 32 (Table S5), read-out: MBC): 25 µg/mL (≈ 46.5 µM)
MBC (clinical strain 33 (Table S5), read-out: MBC): 25 µg/mL (≈ 46.5 µM)
MBC (clinical strain 34 (Table S5), read-out: MBC): 25 µg/mL (≈ 46.5 µM)
MBC (clinical strain 35 (Table S5), read-out: MBC): 25 µg/mL (≈ 46.5 µM)
MBC (clinical strain 36 (Table S5), read-out: MBC): 25 µg/mL (≈ 46.5 µM)
MBC (clinical strain 37 (Table S5), read-out: MBC): 25 µg/mL (≈ 46.5 µM)
MBC (clinical strain 38 (Table S5), read-out: MBC): 25 µg/mL (≈ 46.5 µM)
MBC (clinical strain 39 (Table S5), read-out: MBC): 12.5 µg/mL (≈ 23.2 µM)
MBC (clinical strain 40 (Table S5), read-out: MBC): 12.5 µg/mL (≈ 23.2 µM)
MBC (clinical strain 41 (Table S5), read-out: MBC): 25 µg/mL (≈ 46.5 µM)
MBC (clinical strain 42 (Table S5), read-out: MBC): 12.5 µg/mL (≈ 23.2 µM)
MBC (clinical strain 43 (Table S5), read-out: MBC): 25 µg/mL (≈ 46.5 µM)
MBC (clinical strain 44 (Table S5), read-out: MBC): 25 µg/mL (≈ 46.5 µM)
MBC (clinical strain 45 (Table S5), read-out: MBC): 25 µg/mL (≈ 46.5 µM)
MBC (clinical strain 46 (Table S5), read-out: MBC): 12.5 µg/mL (≈ 23.2 µM)
MBC (clinical strain 47 (Table S5), read-out: MBC): 25 µg/mL (≈ 46.5 µM)
MBC (clinical strain 48 (Table S5), read-out: MBC): 25 µg/mL (≈ 46.5 µM)
MBC (clinical strain 49 (Table S5), read-out: MBC): 1.6 µg/mL (≈ 2.97 µM)
MBC (clinical strain 50 (Table S5), read-out: MBC): 50 µg/mL (≈ 92.9 µM)
MBC (clinical strain 51 (Table S5), read-out: MBC): 50 µg/mL (≈ 92.9 µM)
MBC (clinical strain 52 (Table S5), read-out: MBC): 50 µg/mL (≈ 92.9 µM)
MBC (clinical strain 53 (Table S5), read-out: MBC): 50 µg/mL (≈ 92.9 µM)
MBC (clinical strain 54 (Table S5), read-out: MBC): 12.5 µg/mL (≈ 23.2 µM)
MBC (clinical strain 55 (Table S5), read-out: MBC): 50 µg/mL (≈ 92.9 µM)
MBC (clinical strain 56 (Table S5), read-out: MBC): 25 µg/mL (≈ 46.5 µM)
MBC (clinical strain 57 (Table S5), read-out: MBC): 50 µg/mL (≈ 92.9 µM)
MBC (clinical strain 58 (Table S5), read-out: MBC): 12.5 µg/mL (≈ 23.2 µM)
MBC (clinical strain 59 (Table S5), read-out: MBC): 50 µg/mL (≈ 92.9 µM)
MBC (clinical strain 60 (Table S5), read-out: MBC): 50 µg/mL (≈ 92.9 µM)
MBC (clinical strain 61 (Table S5), read-out: MBC): 25 µg/mL (≈ 46.5 µM)
MBC (clinical strain 62 (Table S5), read-out: MBC): 25 µg/mL (≈ 46.5 µM)
MBC (clinical strain 63 (Table S5), read-out: MBC): 25 µg/mL (≈ 46.5 µM)
MBC (clinical strain 64 (Table S5), read-out: MBC): 50 µg/mL (≈ 92.9 µM)
MBC (clinical strain 65 (Table S5), read-out: MBC): 50 µg/mL (≈ 92.9 µM)
MBC (clinical strain 66 (Table S5), read-out: MBC): 25 µg/mL (≈ 46.5 µM)
MBC (clinical strain 67 (Table S5), read-out: MBC): 50 µg/mL (≈ 92.9 µM)
MBC (clinical strain 68 (Table S5), read-out: MBC): 50 µg/mL (≈ 92.9 µM)
MBC (clinical strain 69 (Table S5), read-out: MBC): 25 µg/mL (≈ 46.5 µM)
MBC (clinical strain 70 (Table S5), read-out: MBC): 50 µg/mL (≈ 92.9 µM)
MBC (clinical strain 71 (Table S5), read-out: MBC): 25 µg/mL (≈ 46.5 µM)
MBC (clinical strain 72 (Table S5), read-out: MBC): 50 µg/mL (≈ 92.9 µM)
MBC (clinical strain 73 (Table S5), read-out: MBC): 6.25 µg/mL (≈ 11.6 µM)
MBC (clinical strain 74 (Table S5), read-out: MBC): 50 µg/mL (≈ 92.9 µM)
MBC (clinical strain 75 (Table S5), read-out: MBC): 50 µg/mL (≈ 92.9 µM)
MBC (clinical strain 76 (Table S5), read-out: MBC): 25 µg/mL (≈ 46.5 µM)
MBC (clinical strain 77 (Table S5), read-out: MBC): 50 µg/mL (≈ 92.9 µM)
MBC (clinical strain 78 (Table S5), read-out: MBC): 25 µg/mL (≈ 46.5 µM)
MBC (clinical strain 79 (Table S5), read-out: MBC): 6.25 µg/mL (≈ 11.6 µM)
MBC (clinical strain 80 (Table S5), read-out: MBC): 50 µg/mL (≈ 92.9 µM)
MBC (clinical strain 81 (Table S5), read-out: MBC): 3.12 µg/mL (≈ 5.81 µM)
MBC (read-out: Mean MBC): 29.2 µg/mL (≈ 54.2 µM)
MBC/MIC ratio (clinical S. epidermidis strains): 16
MBC/MIC (clinical strain 1 (Table S5)): 16
MBC/MIC (clinical strain 2 (Table S5)): 16
MBC/MIC (clinical strain 3 (Table S5)): 16
MBC/MIC (clinical strain 4 (Table S5)): 16
MBC/MIC (clinical strain 5 (Table S5)): 16
MBC/MIC (clinical strain 6 (Table S5)): 16
MBC/MIC (clinical strain 7 (Table S5)): 16
MBC/MIC (clinical strain 8 (Table S5)): 16
MBC/MIC (clinical strain 9 (Table S5)): 16
MBC/MIC (clinical strain 10 (Table S5)): 16
MBC/MIC (clinical strain 11 (Table S5)): 16
MBC/MIC (clinical strain 12 (Table S5)): 16
MBC/MIC (clinical strain 13 (Table S5)): 16
MBC/MIC (clinical strain 14 (Table S5)): 16
MBC/MIC (clinical strain 15 (Table S5)): 16
MBC/MIC (clinical strain 16 (Table S5)): 16
MBC/MIC (clinical strain 17 (Table S5)): 16
MBC/MIC (clinical strain 18 (Table S5)): 16
MBC/MIC (clinical strain 19 (Table S5)): 16
MBC/MIC (clinical strain 20 (Table S5)): 16
MBC/MIC (clinical strain 21 (Table S5)): 16
MBC/MIC (clinical strain 22 (Table S5)): 16
MBC/MIC (clinical strain 23 (Table S5)): 16
MBC/MIC (clinical strain 24 (Table S5)): 16
MBC/MIC (clinical strain 25 (Table S5)): 16
MBC/MIC (clinical strain 26 (Table S5)): 16
MBC/MIC (clinical strain 27 (Table S5)): 16
MBC/MIC (clinical strain 28 (Table S5)): 16
MBC/MIC (clinical strain 29 (Table S5)): 16
MBC/MIC (clinical strain 30 (Table S5)): 16
MBC/MIC (clinical strain 31 (Table S5)): 16
MBC/MIC (clinical strain 32 (Table S5)): 16
MBC/MIC (clinical strain 33 (Table S5)): 16
MBC/MIC (clinical strain 34 (Table S5)): 16
MBC/MIC (clinical strain 35 (Table S5)): 16
MBC/MIC (clinical strain 36 (Table S5)): 16
MBC/MIC (clinical strain 37 (Table S5)): 16
MBC/MIC (clinical strain 38 (Table S5)): 16
MBC/MIC (clinical strain 39 (Table S5)): 16
MBC/MIC (clinical strain 40 (Table S5)): 16
MBC/MIC (clinical strain 41 (Table S5)): 16
MBC/MIC (clinical strain 42 (Table S5)): 16
MBC/MIC (clinical strain 43 (Table S5)): 16
MBC/MIC (clinical strain 44 (Table S5)): 16
MBC/MIC (clinical strain 45 (Table S5)): 16
MBC/MIC (clinical strain 46 (Table S5)): 16
MBC/MIC (clinical strain 47 (Table S5)): 16
MBC/MIC (clinical strain 48 (Table S5)): 16
MBC/MIC (clinical strain 49 (Table S5)): 16
MBC/MIC (clinical strain 50 (Table S5)): 16
MBC/MIC (clinical strain 51 (Table S5)): 16
MBC/MIC (clinical strain 52 (Table S5)): 16
MBC/MIC (clinical strain 53 (Table S5)): 16
MBC/MIC (clinical strain 54 (Table S5)): 16
MBC/MIC (clinical strain 55 (Table S5)): 16
MBC/MIC (clinical strain 56 (Table S5)): 16
MBC/MIC (clinical strain 57 (Table S5)): 16
MBC/MIC (clinical strain 58 (Table S5)): 16
MBC/MIC (clinical strain 59 (Table S5)): 16
MBC/MIC (clinical strain 60 (Table S5)): 16
MBC/MIC (clinical strain 61 (Table S5)): 16
MBC/MIC (clinical strain 62 (Table S5)): 16
MBC/MIC (clinical strain 63 (Table S5)): 16
MBC/MIC (clinical strain 64 (Table S5)): 16
MBC/MIC (clinical strain 65 (Table S5)): 16
MBC/MIC (clinical strain 66 (Table S5)): 16
MBC/MIC (clinical strain 67 (Table S5)): 16
MBC/MIC (clinical strain 68 (Table S5)): 16
MBC/MIC (clinical strain 69 (Table S5)): 16
MBC/MIC (clinical strain 70 (Table S5)): 16
MBC/MIC (clinical strain 71 (Table S5)): 16
MBC/MIC (clinical strain 72 (Table S5)): 16
MBC/MIC (clinical strain 73 (Table S5)): 16
MBC/MIC (clinical strain 74 (Table S5)): 16
MBC/MIC (clinical strain 75 (Table S5)): 16
MBC/MIC (clinical strain 76 (Table S5)): 16
MBC/MIC (clinical strain 77 (Table S5)): 16
MBC/MIC (clinical strain 78 (Table S5)): 16
MBC/MIC (clinical strain 79 (Table S5)): 16
MBC/MIC (clinical strain 80 (Table S5)): 16
MBC/MIC (clinical strain 81 (Table S5)): 16
